Measured values as given in US20160250285A1, “NEUROPROTECTIVE PEPTIDES” (priority 2013, published 2016).

System: permanent middle cerebral artery occlusion (MCAO) stroke model
Assay: Rat permanent middle cerebral artery occlusion (MCAO) stroke model
Assay type: in vivo
Settings: for neuroprotective activity in vivo: 1 μmol/kg intravenously 30 min post-MCAO
Method: Administration of peptide (DR9: rrrrrrrrr-NH2; R12, R15, R18, protamine sulphate; protamine) or vehicle (saline: 0.9% NaCl) treatment solution was performed at 30 min post-MCAO. The peptide treatment comprised DR9 in saline (600 μl) to provide an intravenous loading dose of 1 μmol/kg or 1000 nmol/kg given over 5-6 min via the right jugular vein.
This study was approved by the Animal Ethics Committee of the University of Western Australia. Male Sprague Dawley rats weighing 270 g to 350 g were kept under controlled housing conditions with 12 hour light-dark cycle with free access to food and water. Experimental animals were fasted overnight and subjected to permanent middle cerebral artery occlusion (MCAO) as follows.
Anaesthesia was induced with 4% isoflurane and a 2:1 mix of N2O and O2 via mask. Anaesthesia was maintained at 1.7-2% isoflurane. Cerebral blood flow (CBF) was monitored continuously using laser Doppler flowmetry (Blood FlowMeter, AD Instruments, Sydney, Australia). The probe was located 1 mm caudal and 4 mm lateral (right) to the bregma. A cannula was inserted in the right femoral artery to continuously monitor blood pressure and to provide samples for blood glucose and blood gas readings. Blood glucose was measured using a glucometer (MediSense Products, Abbott Laboratories, Bedford, Mass., USA) and blood gases were measured using a blood gas analyser (ABL5, Radiometer, Copenhagen, Denmark). Blood pressure was maintained at 80-100 mmHg. During surgery, rectal temperature was maintained at 37±0.5° C. and warming applied with a fan heater when necessary. For intravenous infusions, a length of PVC line primed with heparinised saline was tied in place in the right jugular vein, then externalised through a dorsal mid-scapular incision to a tether/swivel system (Instech Laboratories, Philadelphia, USA) designed to permit free movement.
The right common carotid artery (CCA) was exposed via a ventral neck incision. […] The isolated section of the ECA was ligated and cauterised to create a stump. The carotid body was removed and the pterygopalatine artery was ligated. A 4-0 nylon monofilament with a 0.39 mm diameter silicone tip (Doccol, Redlands, Calif., USA) was inserted through the ECA stump into the CCA and advanced rostrally into the internal carotid artery (ICA) until the laser Doppler flowmetry recorded a >30% decrease from baseline of cerebral blood flow. The monofilament was secured in two places (at the base of the ECA stump and on the ICA) for the remainder of the experiment. Animals were given post-operative analgesia consisting of pethidine (3 mg/kg intramuscular) and bupivacaine (1.5 mg/kg subcutaneously) at head and leg incision sites.
Post-surgery animals were allowed to recover in a climate-controlled chamber and their core body temperature monitored and maintained at 37±0.5° C. by a cooling/heating fan when required for 3-4 hours.
Animals were sacrificed 24 hours post-MCAO with intra-peritoneal injections of sodium pentobarbitone (900 mg/kg). […] Slices were scanned and images were analysed by an operator blind to treatment status using ImageJ 3rd edition (NIH, USA). The total infarct volume was determined by adding the areas of infarcted tissue on both sides of the 2 mm sections. These measured areas were multiplied by half slice thickness (1 mm), and corrected for cerebral oedema by multiplying the ratio of affected to normal hemisphere areas. […]

Row | Molecule | neuroprotective activity in vivo | reduction of infarct volume (brain damage) (1 μmol/kg IV 30 min post-MCAO, infarct volume 24 h post-MCAO (FIGS. 5, 27))
1 | N=C(N)NCCC[C@H](NC(=O)[C@H](CCCNC(=N)N)NC(=O)[C@H](CCCNC(=N)N)NC(=O)[C@H](CCCNC(=N)N)NC(=O)[C@H](CCCNC(=N)N)NC(=O)[C@H](CCCNC(=N)N)NC(=O)[C@H](CCCNC(=N)N)NC(=O)[C@H](CCCNC(=N)N)NC(=O)[C@@H](N)CCCNC(=N)N)C(=O)O [Peptide R9] | possessed neuroprotective activity in vivo | –
2 | H-RRRRRRRRRRRRRRRRRR-OH [Peptide R18] | possessed neuroprotective activity in vivo | approximately 20%
